In patent US11492335B2, “Aryl or heteroaryl triazolone derivatives or salts thereof, or pharmaceutical compositions comprising the same” (YUHAN CORPORATION, priority 2018, dated 2022):
Where a name gives a salt, the structure may show the parent alone. Read-outs that look alike come from different tables or passages of the source.

Experiments:
Type in all cases: biochemical
recombinant human VAP-1 = target: T1, recombinant human VAP-1 (Homo sapiens, UniProt Q16853); assay: Activity on recombinant human VAP-1, Amplex Red HRP-coupled hydrogen peroxide assay, benzylamine substrate; conditions: recombinant human VAP-1, benzylamine substrate, read-out: Inhibitory Activity (IC50, nM) human VAP-1
T1 construct: purchased R&D systems
T1 sequence (Q16853 1-763): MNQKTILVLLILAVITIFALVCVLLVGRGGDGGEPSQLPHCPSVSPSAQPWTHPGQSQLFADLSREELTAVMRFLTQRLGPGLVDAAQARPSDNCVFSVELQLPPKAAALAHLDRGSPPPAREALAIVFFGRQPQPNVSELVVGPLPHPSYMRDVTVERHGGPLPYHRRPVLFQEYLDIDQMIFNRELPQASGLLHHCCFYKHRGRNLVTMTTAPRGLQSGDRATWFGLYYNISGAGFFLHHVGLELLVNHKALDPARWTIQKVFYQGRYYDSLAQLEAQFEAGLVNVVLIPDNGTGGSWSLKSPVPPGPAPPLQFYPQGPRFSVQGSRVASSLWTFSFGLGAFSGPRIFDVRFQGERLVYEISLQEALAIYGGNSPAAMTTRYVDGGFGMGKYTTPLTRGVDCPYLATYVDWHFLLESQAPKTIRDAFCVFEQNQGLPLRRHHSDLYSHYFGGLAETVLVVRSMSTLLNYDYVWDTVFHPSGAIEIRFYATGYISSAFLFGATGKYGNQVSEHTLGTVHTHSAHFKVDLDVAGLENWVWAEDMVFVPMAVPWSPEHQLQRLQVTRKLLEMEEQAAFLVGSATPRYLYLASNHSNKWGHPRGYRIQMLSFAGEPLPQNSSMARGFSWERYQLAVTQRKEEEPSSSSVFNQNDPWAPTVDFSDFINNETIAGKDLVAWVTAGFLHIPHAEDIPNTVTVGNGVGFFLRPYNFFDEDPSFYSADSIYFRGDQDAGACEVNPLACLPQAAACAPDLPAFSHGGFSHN
In short: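 Fluorescence of resorufin formed from H2O2 (ex 544 nm, em 590 nm) was tracked for 1-2 h after adding 1 mM benzylamine, 200 uM Amplex Red and 1 U/mL HRP to enzyme pretreated with compound for 30 min at 37 °C. IC50 values derive from four-variable logistic fits.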

[1] = target: T2, recombinant human MAO-A (monoamine oxidase-A) (Homo sapiens, UniProt P21397); assay: Activity on recombinant human MAO-A, Amplex Red method, 0.5 mM tyramine substrate; conditions: read-out: Inhibitory Activity (IC50, nM) MAO-A
T2 construct: purchased Sigma-Aldrich
T2 sequence (P21397 1-527): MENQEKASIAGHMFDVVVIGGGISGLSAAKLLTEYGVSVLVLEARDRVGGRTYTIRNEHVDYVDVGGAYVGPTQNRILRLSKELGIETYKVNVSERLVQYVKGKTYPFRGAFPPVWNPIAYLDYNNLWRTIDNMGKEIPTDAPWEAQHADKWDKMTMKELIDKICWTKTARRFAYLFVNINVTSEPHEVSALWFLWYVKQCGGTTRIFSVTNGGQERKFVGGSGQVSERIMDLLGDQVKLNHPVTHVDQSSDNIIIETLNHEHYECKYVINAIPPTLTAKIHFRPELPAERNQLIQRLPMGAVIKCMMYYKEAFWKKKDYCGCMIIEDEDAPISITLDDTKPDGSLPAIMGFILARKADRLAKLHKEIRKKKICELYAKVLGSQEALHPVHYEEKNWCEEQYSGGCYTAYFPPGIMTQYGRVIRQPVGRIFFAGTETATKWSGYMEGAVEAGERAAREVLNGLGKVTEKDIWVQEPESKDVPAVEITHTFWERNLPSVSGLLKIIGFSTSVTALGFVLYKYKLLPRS
In short: (§1)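 Fluorescence (544/590 nm) of resorufin formed from Amplex Red by HRP and enzyme-generated H2O2 was followed over 1-2 h. Substrates were 0.5 mM tyramine for MAO-A and 1 mM benzylamine for MAO-B; compounds were preincubated with enzyme for 30 min at 37° C. IC50 came from four-parameter logistic fitting of signal-rate inhibition.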

[2] = target: T3, recombinant human MAO-B (monoamine oxidase-B) (Homo sapiens, UniProt P27338); assay: Activity on recombinant human MAO-B, Amplex Red method, 1 mM benzylamine substrate; conditions: read-out: Inhibitory Activity (IC50, nM) MAO-B
T3 construct: purchased Sigma-Aldrich
T3 sequence (P27338 1-520): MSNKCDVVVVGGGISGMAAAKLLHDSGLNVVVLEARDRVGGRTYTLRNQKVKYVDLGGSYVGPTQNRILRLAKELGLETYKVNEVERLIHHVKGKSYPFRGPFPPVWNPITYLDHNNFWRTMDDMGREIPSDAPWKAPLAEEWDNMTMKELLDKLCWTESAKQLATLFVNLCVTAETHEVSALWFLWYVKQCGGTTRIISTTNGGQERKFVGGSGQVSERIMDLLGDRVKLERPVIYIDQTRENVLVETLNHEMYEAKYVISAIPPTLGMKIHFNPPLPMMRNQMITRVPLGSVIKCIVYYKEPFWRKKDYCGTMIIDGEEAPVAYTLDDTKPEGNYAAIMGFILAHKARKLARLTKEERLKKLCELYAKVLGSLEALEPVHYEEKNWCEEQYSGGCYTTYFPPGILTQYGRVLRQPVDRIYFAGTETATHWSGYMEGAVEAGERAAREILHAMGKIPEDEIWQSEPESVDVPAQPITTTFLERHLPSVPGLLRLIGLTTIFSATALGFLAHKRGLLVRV
In short: as §1

[3] = target: T4, recombinant human DAO (diamine oxidase) (Homo sapiens, UniProt P19801); assay: Activity on recombinant human DAO, Amplex Red method, 1 mM putrescine substrate; conditions: recombinant human DAO, read-out: Inhibitory Activity (IC50, nM) DAO
T4 construct: purchased R&D systems
T4 sequence (P19801 20-751): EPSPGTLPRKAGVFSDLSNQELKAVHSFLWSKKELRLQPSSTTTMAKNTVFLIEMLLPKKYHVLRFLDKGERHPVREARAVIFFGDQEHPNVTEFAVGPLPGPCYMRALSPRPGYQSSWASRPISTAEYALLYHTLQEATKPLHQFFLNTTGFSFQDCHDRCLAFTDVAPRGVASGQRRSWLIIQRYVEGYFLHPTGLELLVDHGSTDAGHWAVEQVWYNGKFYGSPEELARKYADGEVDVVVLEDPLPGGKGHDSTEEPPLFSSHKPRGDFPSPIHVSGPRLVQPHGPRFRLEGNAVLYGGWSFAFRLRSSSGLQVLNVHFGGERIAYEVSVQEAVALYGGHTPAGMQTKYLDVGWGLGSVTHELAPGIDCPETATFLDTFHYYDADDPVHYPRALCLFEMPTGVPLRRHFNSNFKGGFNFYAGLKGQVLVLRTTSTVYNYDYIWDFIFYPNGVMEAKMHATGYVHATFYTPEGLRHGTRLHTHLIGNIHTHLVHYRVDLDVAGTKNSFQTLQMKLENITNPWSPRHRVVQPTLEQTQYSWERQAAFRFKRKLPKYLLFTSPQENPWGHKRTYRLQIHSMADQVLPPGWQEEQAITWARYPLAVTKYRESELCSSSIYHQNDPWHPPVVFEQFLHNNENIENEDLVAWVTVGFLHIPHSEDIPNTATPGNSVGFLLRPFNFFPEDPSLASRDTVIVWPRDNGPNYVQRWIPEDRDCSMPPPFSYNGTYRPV
In short: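 Inhibition of recombinant human DAO (diamine oxidase, R&D systems) was assessed with the Amplex Red Hydrogen Peroxide Assay Kit. Hydrogen peroxide produced from 1 mM putrescine was detected through an HRP-coupled reaction that converts Amplex Red into fluorescent resorufin, read at 544 nm excitation and 590 nm emission. IC50 values came from four-parameter logistic fits in GraphPad Prism.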

[4] = 1 mM putrescine, * = between 10 and 100 nM, ** = between 300 and 1000 nM

Compound | IC50 (recombinant human VAP-1; 30 min preincubation at 37° C.) [nM] | IC50 ([1]; 0.5 mM tyramine) [nM] | IC50 ([2]; 1 mM benzylamine) [nM] | IC50 [3, 4] [nM] | IC50 (recombinant human VAP-1) [nM] | IC50 ([1]; 0.5 mM tyramine substrate) [nM] | IC50 ([2]; 1 mM benzylamine substrate) [nM] | IC50 ([3]; 1 mM putrescine substrate) [nM]
CC(=O)c1ccc(-c2ccc(-n3cnn(C/C(=C\F)CN)c3=O)cc2)s1 [Example 42, 4-[4-(5-acetylthiophen-2-yl)phenyl]-2-[(2Z)-2-(aminomethyl)-3-fluoroprop-2-en-1-yl]-2,4-dihydro-3H-1,2,4-triazol-3-one hydrochloride] | 0.47 | 18400 | < 0.01 | 1 |  |  |  | 
CC(=O)Nc1ccc(-c2cccc(-n3cnn(C/C(=C/F)CN)c3=O)n2)cc1 [Example 175, N-[4-(6-{1-[(2E)-2-(aminomethyl)-3-fluoroprop-2-en-1-yl]-5-oxo-1,5-dihydro-4H-1,2,4-triazol-4-yl}pyridin-2-yl)phenyl]acetamide] |  |  |  |  | 0.44 | 1470 | > 10000 | < 30
NC/C(=C/F)Cn1ncn(-c2c(F)cc(Br)cc2F)c1=O [Example 21, 2-[(2Z)-2-(aminomethyl)-3-fluoroprop-2-en-1-yl]-4-(4-bromo-2,6-difluorophenyl)-2,4-dihydro-3H-1,2,4-triazol-3-one hydrochloride] | 7.3 | 400 | 25 | 333 |  |  |  | 
NC/C(=C\F)Cn1ncn(-c2cccc(/C=C/c3cnc4[nH]c(=O)oc4c3)n2)c1=O [Example 242, 6-[(E)-2-[6-[1-[(E)-2-(aminomethyl)-3-fluoro-allyl]-5-oxo-1,2,4-triazol-4-yl]-2-pyridyl]vinyl]-3H-oxazolo[4,5-b]pyridin-2-one hydrochloride] |  |  |  |  | 1.5 | > 100000 | > 10000 | 21
NC/C(=C\F)Cn1ncn(-c2cnc(-c3ccc(N4CCOCC4)nc3)cn2)c1=O [Example 221, 2-[(2E)-2-(aminomethyl)-3-fluoroprop-2-en-1-yl]-4-{5-[6-(morpholin-4-yl)pyridin-3-yl]pyrazin-2-yl}-2,4-dihydro-3H-1,2,4-triazol-3-one] |  |  |  |  | 1.9 | > 100000 | 650 | < 100
CC(C)Sc1ccc(-c2cccc(-n3cnn(C/C(=C/F)CN)c3=O)c2)cc1 [Example 52, 2-[(2E)-2-(aminomethyl)-3-fluoroprop-2-en-1-yl]-4-[4′-(propan-2-ylsulfanyl)biphenyl-3-yl]-2,4-dihydro-3H-1,2,4-triazol-3-one hydrochloride] | 1.2 | 50000 | 3600 | 24 |  |  |  | 
Cc1cc(-n2cnn(C/C(=C/F)CN)c2=O)ncc1-c1ccc2sc(N)nc2c1 [Example 161, 4-[5-(2-amino-1,3-benzothiazol-5-yl)-4-methylpyridin-2-yl]-2-[(2E)-2-(aminomethyl)-3-fluoroprop-2-en-1-yl]-2,4-dihydro-3H-1,2,4-triazol-3-one hydrochloride] |  |  |  |  | 6.5 | 6240 | 3140 | 2
Cc1ccc(-c2ccc3c(c2)OCO3)nc1-n1cnn(C/C(=C/F)CN)c1=O [Example 213, 2-[(2E)-2-(aminomethyl)-3-fluoroprop-2-en-1-yl]-4-[6-(1,3-benzodioxol-5-yl)-3-methylpyridin-2-yl]-2,4-dihydro-3H-1,2,4-triazol-3-one hydrochloride] |  |  |  |  | 29 | > 100000 | > 10000 | 1800
CS(=O)(=O)c1ccc(-c2ccnc(-n3cnn(C/C(=C/F)CN)c3=O)c2)cc1 [Example 165, 2-[(2E)-2-(aminomethyl)-3-fluoroprop-2-en-1-yl]-4-{4-[4-(methylsulfonyl)phenyl]pyridin-2-yl}-2,4-dihydro-3H-1,2,4-triazol-3-one] |  |  |  |  | 1.9 | > 100000 | > 10000 | < 30
Cc1cc(-c2cccc(-c3ncon3)c2)cnc1-n1cnn(C/C(=C/F)CN)c1=O [Example 140, 2-[(2E)-2-(aminomethyl)-3-fluoroprop-2-en-1-yl]-4-{3-methyl-5-[3-(1,2,4-oxadiazol-3-yl)phenyl]pyridin-2-yl}-2,4-dihydro-3H-1,2,4-triazol-3-one] | 0.79 | 3400 | 3100 | 13000 |  |  |  | 
